Laboratory results as given in patent US7192906B2, “Substituted pyrazole derivatives, production process thereof, and herbicide compositions containing the derivatives” (SDS Biotech K.K., priority 2001, dated 2007).

Key:
Assay type in all cases: in vivo
Chenopodium album [1] = test: Test Example 1 upland field foliage treatment; settings: Table 4, upland field foliage treatment, index 0-5
Procedure: (§1) A plastic pot of 130 cm^2 was filled with upland soil. Subsequently, weed seeds of Setaria viridis, Digitaria adscendens, Chenopodium album and Stellaria media, and crop seeds of soybean (Glycine max) and wheat (Triticum aestivum), were sowed and covered with soil of about 1 cm thickness. On the 14th day after the sowing, the wettable powder prepared in Formulation Example 1 was diluted with water such that the amount of the active ingredient became 1 kg per hectare, and then uniformly applied to the plant leaf surfaces. On the 21st day after the application, observation and evaluation were carried out according to the criteria described below.
(§2) Herbicidal activity was evaluated based on the following criteria.
(§3) • 5: herbicidal effect of not less than 90%, or phytotoxicity of 90% or more • 4: herbicidal effect of not less than 70% and less than 90%, or phytotoxicity of 70% or more and less than 90% • 3: herbicidal effect of not less than 50% and less than 70%, or phytotoxicity of 50% or more and less than 70% • 2: herbicidal effect of not less than 30% and less than 50%, or phytotoxicity of 30% or more and less than 50% • 1: herbicidal effect of not less than 10% and less than 30%, or phytotoxicity of 10% or more and less than 30% • 0: herbicidal effect of not less than 0% and less than 10%, or phytotoxicity of 0% or more and less than 10%

Digitaria adscendens [2] = test: Test Example 1 upland field foliage treatment; settings: Table 4, upland field foliage treatment, index 0-5
Procedure: as §1, §2, §3

Setaria viridis [3] = test: Test Example 1 upland field foliage treatment; settings: Table 4, upland field foliage treatment, index 0-5
Procedure: as §1, §2, §3

Stellaria media [4] = test: Test Example 1 upland field foliage treatment; settings: Table 4, upland field foliage treatment, index 0-5
Procedure: as §1, §2, §3

soybean (Glycine max) [5] = test: Test Example 1 upland field foliage treatment, crop phytotoxicity; settings: Table 4, upland field foliage treatment, index 0-5
Procedure: as §1, §2, §3

[6] = test system: wheat (Triticum aestivum); test: as above; settings: Table 4, upland field foliage treatment, index 0-5
Procedure: as §1, §2, §3

Ammannia multiflora = test: Test Example 3 paddy field treatment; settings: active ingredient 1 kg per hectare, index 0-5
Procedure: (§4) A plastic pot of 130 cm^2 was filled with paddy soil, and soil puddling was carried out to adjust the submerged depth to 4 cm. Subsequently, seeds of Echinochloa crusgalli, Monochoria vaginalis, Ammannia multiflora and Scirpus juncoides were sowed, and rice (Oryza sative, variety: Koshihikari) of two-leaf period was transplanted by 2 rice plants of 1 stub per pot at a depth of 3 cm. On the 10th day after the transplantation, the wettable powder prepared in Formulation Example 1 was diluted with water such that the amount of the active ingredient became 1 kg per hectare, and then dropped to diffuse on the water surface. On the 21st day after the dropping, observation and evaluation were carried out according to the aforesaid criteria.
as §2, §3

Echinochloa crusgalli = test: Test Example 3 paddy field treatment; settings: active ingredient 1 kg per hectare, index 0-5
Procedure: as §4, §2, §3

Monochoria vaginalis = test: Test Example 3 paddy field treatment; settings: active ingredient 1 kg per hectare, index 0-5
Procedure: as §4, §2, §3

Scirpus juncoides = test: Test Example 3 paddy field treatment; settings: active ingredient 1 kg per hectare, index 0-5
Procedure: as §4, §2, §3

Rice (Oryza sativa) = test: Test Example 3 paddy field treatment, crop phytotoxicity; settings: active ingredient 1 kg per hectare, index 0-5; for Herbicidal activity OS (phytotoxicity to rice): paddy field treatment, transplanted rice Koshihikari, wettable powder, 21st day after the dropping; for Herbicidal activity (phytotoxicity) OS: Table 6, paddy field treatment, transplanted rice, 21st day after dropping
Procedure: as §4, §2, §3

Chenopodium album [7] = test: Test Example 2 upland soil treatment; settings: Table 5, upland soil treatment, index 0-5
Procedure: as §1, with “next” for “14th”, “soil surface.” for “plant leaf surfaces.”, “aforesaid criteria.” for “criteria described below.”
as §2, §3

Digitaria adscendens [8] = test: Test Example 2 upland soil treatment; settings: Table 5, upland soil treatment, index 0-5
Procedure: as §1, with “next” for “14th”, “soil surface.” for “plant leaf surfaces.”, “aforesaid criteria.” for “criteria described below.”
as §2, §3

Setaria viridis [9] = test: Test Example 2 upland soil treatment; settings: Table 5, upland soil treatment, index 0-5
Procedure: as §1, with “next” for “14th”, “soil surface.” for “plant leaf surfaces.”, “aforesaid criteria.” for “criteria described below.”
as §2, §3

Stellaria media [10] = test: Test Example 2 upland soil treatment; settings: Table 5, upland soil treatment, index 0-5
Procedure: as §1, with “next” for “14th”, “soil surface.” for “plant leaf surfaces.”, “aforesaid criteria.” for “criteria described below.”
as §2, §3

soybean (Glycine max) [11] = test: Test Example 2 upland soil treatment, crop phytotoxicity; settings: Table 5, upland soil treatment, index 0-5
Procedure: as §1, with “next” for “14th”, “soil surface.” for “plant leaf surfaces.”, “aforesaid criteria.” for “criteria described below.”
as §2, §3

[12] = test system: wheat (Triticum aestivum); test: as above; settings: Table 5, upland soil treatment, index 0-5
Procedure: as §1, with “next” for “14th”, “soil surface.” for “plant leaf surfaces.”, “aforesaid criteria.” for “criteria described below.”
as §2, §3

[13] = paddy field treatment, wettable powder, 21st day after the dropping
[14] = Table 6, paddy field treatment, 21st day after dropping

Compound	Herbicidal activity AM (Ammannia multiflora; [13])	Herbicidal activity EC (Echinochloa crusgalli; [13])	Herbicidal activity MV (Monochoria vaginalis; [13])	Herbicidal activity SJ (Scirpus juncoides; [13])	Herbicidal activity OS (phytotoxicity to rice) (Rice (Oryza sativa))	Herbicidal activity AM (Ammannia multiflora; [14])	Herbicidal activity EC (Echinochloa crusgalli; [14])	Herbicidal activity MV (Monochoria vaginalis; [14])	Herbicidal activity SJ (Scirpus juncoides; [14])	Herbicidal activity (phytotoxicity) OS (Rice (Oryza sativa))	also measured
CNC(=O)C(Cn1cc(C)c(-c2ccccc2F)n1)=NOC [Compound 42]	5 (herbicidal effect of not less than 90%, or phytotoxicity of 90% or more)	5 (herbicidal effect of not less than 90%, or phytotoxicity of 90% or more)	5 (herbicidal effect of not less than 90%, or phytotoxicity of 90% or more)	5 (herbicidal effect of not less than 90%, or phytotoxicity of 90% or more)	0 (herbicidal effect of not less than 0% and less than 10%, or phytotoxicity of 0% or more and less than 10%)						Herbicidal activity CA: Chenopodium album (Chenopodium album [1]): 5 (herbicidal effect of not less than 90%, or phytotoxicity of 90% or more); Herbicidal activity DA: Digitaria adscendens (Digitaria adscendens [2]): 5 (herbicidal effect of not less than 90%, or phytotoxicity of 90% or more); Herbicidal activity SV: Setaria viridis (Setaria viridis [3]): 5 (herbicidal effect of not less than 90%, or phytotoxicity of 90% or more); Herbicidal activity SM: Stellaria media (Stellaria media [4]): 5 (herbicidal effect of not less than 90%, or phytotoxicity of 90% or more); Herbicidal activity (phytotoxicity) GM: Soybean (Glycine max) (soybean (Glycine max) [5]): 0 (herbicidal effect of not less than 0% and less than 10%, or phytotoxicity of 0% or more and less than 10%); Herbicidal activity (phytotoxicity) TA: Wheat (Triticum aestivum) [6]: 0 (herbicidal effect of not less than 0% and less than 10%, or phytotoxicity of 0% or more and less than 10%)
CNC(=O)C(Cn1cc(C)c(C2CCCCC2)n1)=NOC [Compound 11]	5 (herbicidal effect of not less than 90%, or phytotoxicity of 90% or more)	5 (herbicidal effect of not less than 90%, or phytotoxicity of 90% or more)	5 (herbicidal effect of not less than 90%, or phytotoxicity of 90% or more)	5 (herbicidal effect of not less than 90%, or phytotoxicity of 90% or more)	1 (herbicidal effect of not less than 10% and less than 30%, or phytotoxicity of 10% or more and less than 30%)						Herbicidal activity CA: Chenopodium album (Chenopodium album [1]): 5 (herbicidal effect of not less than 90%, or phytotoxicity of 90% or more); Herbicidal activity DA: Digitaria adscendens (Digitaria adscendens [2]): 5 (herbicidal effect of not less than 90%, or phytotoxicity of 90% or more); Herbicidal activity SV: Setaria viridis (Setaria viridis [3]): 3 (herbicidal effect of not less than 50% and less than 70%, or phytotoxicity of 50% or more and less than 70%); Herbicidal activity SM: Stellaria media (Stellaria media [4]): 3 (herbicidal effect of not less than 50% and less than 70%, or phytotoxicity of 50% or more and less than 70%); Herbicidal activity (phytotoxicity) GM: Soybean (Glycine max) (soybean (Glycine max) [5]): 0 (herbicidal effect of not less than 0% and less than 10%, or phytotoxicity of 0% or more and less than 10%); Herbicidal activity (phytotoxicity) TA: Wheat (Triticum aestivum) [6]: 0 (herbicidal effect of not less than 0% and less than 10%, or phytotoxicity of 0% or more and less than 10%)
CNC(=O)C(Cn1cc(C)c(-c2ccc(OC)cc2OC(F)F)n1)=NOC [Compound 91]						5 (herbicidal effect of not less than 90%, or phytotoxicity of 90% or more)	5 (herbicidal effect of not less than 90%, or phytotoxicity of 90% or more)	5 (herbicidal effect of not less than 90%, or phytotoxicity of 90% or more)	4 (herbicidal effect of not less than 70% and less than 90%, or phytotoxicity of 70% or more and less than 90%)	0 (herbicidal effect of not less than 0% and less than 10%, or phytotoxicity of 0% or more and less than 10%)	
CNC(=O)C(Cn1cc(C)c(-c2ccc(C(F)(F)F)cc2)n1)=NOC [Compound 40]	5 (herbicidal effect of not less than 90%, or phytotoxicity of 90% or more)	5 (herbicidal effect of not less than 90%, or phytotoxicity of 90% or more)	5 (herbicidal effect of not less than 90%, or phytotoxicity of 90% or more)	5 (herbicidal effect of not less than 90%, or phytotoxicity of 90% or more)	0 (herbicidal effect of not less than 0% and less than 10%, or phytotoxicity of 0% or more and less than 10%)						
CNC(=O)C(Cn1cc(C)c(-c2ccc(F)c(C(F)(F)F)c2)n1)=NOC [Compound 90]						5 (herbicidal effect of not less than 90%, or phytotoxicity of 90% or more)	5 (herbicidal effect of not less than 90%, or phytotoxicity of 90% or more)	5 (herbicidal effect of not less than 90%, or phytotoxicity of 90% or more)	4 (herbicidal effect of not less than 70% and less than 90%, or phytotoxicity of 70% or more and less than 90%)	0 (herbicidal effect of not less than 0% and less than 10%, or phytotoxicity of 0% or more and less than 10%)	
CON=C(Cn1cc(C)c(-c2ccccc2)n1)C(=O)N1CCCCC1 [Compound 119]						4 (herbicidal effect of not less than 70% and less than 90%, or phytotoxicity of 70% or more and less than 90%)	3 (herbicidal effect of not less than 50% and less than 70%, or phytotoxicity of 50% or more and less than 70%)	4 (herbicidal effect of not less than 70% and less than 90%, or phytotoxicity of 70% or more and less than 90%)	3 (herbicidal effect of not less than 50% and less than 70%, or phytotoxicity of 50% or more and less than 70%)	0 (herbicidal effect of not less than 0% and less than 10%, or phytotoxicity of 0% or more and less than 10%)	
CNC(=O)C(Cn1cc(C)c(-c2ccc(C#N)cc2)n1)=NOC [Compound 51]											Herbicidal activity CA: Chenopodium album (Chenopodium album [7]): 4 (herbicidal effect of not less than 70% and less than 90%, or phytotoxicity of 70% or more and less than 90%); Herbicidal activity DA: Digitaria adscendens (Digitaria adscendens [8]): 4 (herbicidal effect of not less than 70% and less than 90%, or phytotoxicity of 70% or more and less than 90%); Herbicidal activity SV: Setaria viridis (Setaria viridis [9]): 4 (herbicidal effect of not less than 70% and less than 90%, or phytotoxicity of 70% or more and less than 90%); Herbicidal activity SM: Stellaria media (Stellaria media [10]): 4 (herbicidal effect of not less than 70% and less than 90%, or phytotoxicity of 70% or more and less than 90%); Herbicidal activity (phytotoxicity) GM: Soybean (Glycine max) (soybean (Glycine max) [11]): 0 (herbicidal effect of not less than 0% and less than 10%, or phytotoxicity of 0% or more and less than 10%); Herbicidal activity (phytotoxicity) TA: Wheat (Triticum aestivum) [12]: 0 (herbicidal effect of not less than 0% and less than 10%, or phytotoxicity of 0% or more and less than 10%)
